The values below come from PMC6272208, “2-Keto-D-Gluconate-Yielding Membrane-Bound D-Glucose Dehydrogenase from Arthrobacter globiformis C224: Purification and Characterization” (Molecules, 2015).

Common to all, as to type: biochemical
In assay [1] the test system is T1, membrane-bound D-glucose dehydrogenase (GlcDH) from Arthrobacter globiformis C224.
T1 construct: gene gcd; native, purified from membrane fraction of C224 (Triton X-114, precipitations, hydroxylapatite); 87 kDa, single SDS-PAGE band, no subunits
The experiment in a line: single-substrate kinetics, Lineweaver-Burk. The note with it: pH 5.0 (Table 5); general assay uses ferricyanide as electron acceptor in McIlvaine buffer, stated there as pH 3.0. The source says: single-substrate kinetics, Lineweaver-Burk on membrane-bound D-glucose dehydrogenase (GlcDH) from Arthrobacter globiformis […]

For assay [2] the test system is unchanged. The experiment in a line: dual-substrate initial velocity kinetics (ping-pong). To be noted: artificial electron acceptor; glucose as co-substrate (5-80 mM), PMS 50-200 µM.
The target in assay [3] is T1, membrane-bound D-glucose dehydrogenase (GlcDH) from Arthrobacter globiformis C224. Put plainly: steady-state product inhibition kinetics, Lineweaver-Burk. To be noted: competitive towards PMS; PMS varied at 33 mM glucose, gluconic acid 0-200 mM; read-out: inhibition constant.

Where a name gives a salt, the structure may show the parent alone.

Take `OC[C@H]1OC(O)[C@H](O)[C@@H](O)[C@@H]1O` (stereo partly drawn) [D-glucose]: in assay [1], the Michaelis-Menten constant (Km) (as a rule, the concentration of substrate that gives half-maximal velocity) amounted to 210 ± 10 µM.

With `C[n+]1c2ccccc2nc2ccccc21` [N-methylphenazonium methyl sulfate], in assay [2], the Km was determined as 400 µM.

In the case of `OC[C@H]1OC(O)[C@H](O)[C@@H](O)[C@H]1O` (stereo partly drawn) [D-galactose], the Km in assay [1] amounted to 460 ± 20 µM.

As to `O=C(O)[C@H](O)[C@@H](O)[C@H](O)[C@H](O)CO` [gluconic acid], the Ki in assay [3] amounted to 11.4 mM. Regarding `OC[C@H]1O[C@H](O[C@H]2[C@H](O)[C@@H](O)C(O)O[C@@H]2CO)[C@H](O)[C@@H](O)[C@@H]1O` (stereo partly drawn) [maltose], the Km in assay [1] was 590 ± 30 µM. The same measure, in the same setting: in the case of `OC1OC[C@@H](O)[C@H](O)[C@H]1O` (stereo partly drawn) [D-xylose] it was 340 ± 20 µM.
